Reference: patent US9174967B2, “Substituted pyrazole-containing compounds and their use as pesticides” (BASF SE, priority 2012, dated 2015)

What was measured:
Assay in all cases: whole plant or invertebrate
Type in all cases: in vivo
[1] = system: Diamond Back Moth (plutella xylostella); settings: in Brassica oleracea, foliar, leaf dip, 3rd instar larvae, 72 hours after treatment, read-out: mortality in comparison with untreated controls
[2] = system: Rice Green Leafhopper (Nephotettix virescens); settings: adults, after 72 hours, read-out: mortality in comparison with untreated controls
[3] = system: Boll Weevil (Anthonomus grandis); settings: 120 h, egg and larval mortality after 5 days, read-out: mortality in comparison with untreated controls
[4] = system: Cowpea Aphid (aphis craccivora); settings: spray, population reduction assessed after 24, 72 and 120 hours, read-out: mortality in comparison with untreated controls
[5] = system: Tobacco Budworm (Heliothis virescens); settings: in Gossypium hirsutum, 96 h, larvae, 4 days after treatment, read-out: mortality in comparison with untreated controls
[6] = system: Southern Armyworm (Spodoptera eridania); settings: in Phaseolus lunatus, 96 h, larvae, 4 days after treatment, read-out: mortality in comparison with untreated controls
[7] = system: Rice Brown Plant Hopper (Nilaparvata lugens); settings: adults, after 72 hours, read-out: mortality in comparison with untreated controls
[8] = system: Mediterranean Fruitfly (Ceratitis capitata); settings: 120 h, egg and larval mortality after 5 days, read-out: mortality in comparison with untreated controls
[9] = system: Red Spider Mite (Tetranychus kanzawai); settings: in Vigna unguiculata, 72 hours after treatment, read-out: mortality in comparison with untreated controls
[10] = system: Vetch Aphid (Megoura viciae); settings: foliar, 120 h, adult aphids, after 5 days, read-out: mortality in comparison with untreated controls
[11] = system: Orchid Thrips (dichromothrips corbetti); settings: 96 h, adult thrips, after 4 days, read-out: mortality in comparison with untreated controls
[12] = system: Silverleaf Whitefly (Bemisia argentifolii); settings: 72 h, whitefly adults, 3 days after treatment, read-out: mortality in comparison with untreated controls
[13] = system: Green Peach Aphid (Myzus persicae); settings: 120 h, after 5 days, read-out: mortality in comparison with untreated controls
[14] = system: Colorado Potato Beetle (Leptinotarsa decemlineata); settings: in Solanum melongena, foliar, 96 h, larvae, 4 days after treatment, read-out: mortality in comparison with untreated controls

CCS(CC)=Nc1c(-c2cc(Cl)c3c(c2)OCO3)c(C(F)(F)F)nn1-c1ncccn1 [I.1-1, [4-(7-Chloro-1,3-benzodioxol-5-yl)-2-pyrimidin-2-yl-5-(trifluoromethyl)pyrazol-3-yl]imino-diethyl-λ^4-sulfane]
≥ 75%: mortality at 300 ppm [1] | mortality at 300 ppm [2] | mortality at 2500 ppm [3] | mortality at 300 ppm [4] | mortality at 2500 ppm [5] | mortality at 300 ppm [6] | mortality at 500 ppm [7] | mortality at 2500 ppm [8] | mortality at 300 ppm [9] | mortality at 2500 ppm [10] | mortality at 300 ppm [11] | mortality at 500 ppm [12]

CC(C)S(=Nc1c(-c2cc(Cl)c3c(c2)OCO3)c(C(F)(F)F)nn1-c1ncccn1)C(C)C [I.1-2, [4-(7-Chloro-1,3-benzodioxol-5-yl)-2-pyrimidin-2-yl-5-(trifluoromethyl)pyrazol-3-yl]imino-diisopropyl-λ^4-sulfane]
≥ 75%: mortality at 300 ppm [1] | mortality at 300 ppm [2] | mortality at 2500 ppm [3] | mortality at 300 ppm [4] | mortality at 2500 ppm [5] | mortality at 300 ppm [6] | mortality at 500 ppm [7] | mortality at 2500 ppm [8] | mortality at 2500 ppm [10] | mortality at 300 ppm [11] | mortality at 500 ppm [12]

FC(F)(F)c1nn(-c2ncccn2)c(N=S2CCCC2)c1-c1cc(Cl)c2c(c1)OCO2 [I.1-3, 2-[4-(7-Chloro-1,3-benzodioxol-5-yl)-5-(thiolan-1-ylideneamino)-3-(trifluoromethyl)pyrazol-1-yl]pyrimidine]
≥ 75%: mortality at 300 ppm [1] | mortality at 300 ppm [2] | mortality at 2500 ppm [3] | mortality at 300 ppm [4] | mortality at 2500 ppm [5] | mortality at 300 ppm [6] | mortality at 500 ppm [7] | mortality at 2500 ppm [8] | mortality at 300 ppm [9] | mortality at 2500 ppm [10] | mortality at 300 ppm [11] | mortality at 500 ppm [12]

CCS(CC)=Nc1c(-c2cc(Cl)cc(C(F)(F)F)c2)c(C(F)(F)F)nn1-c1ncccn1 [I.1-4]
≥ 75%: mortality at 300 ppm [1] | mortality at 300 ppm [2] | mortality at 2500 ppm [3] | mortality at 300 ppm [4] | mortality at 2500 ppm [5] | mortality at 300 ppm [6] | mortality at 500 ppm [7] | mortality at 2500 ppm [8] | mortality at 300 ppm [9] | mortality at 2500 ppm [10] | mortality at 300 ppm [11]

CC(C)S(=Nc1c(-c2cc(Cl)cc(C(F)(F)F)c2)c(C(F)(F)F)nn1-c1ncccn1)C(C)C [I.1-5]
≥ 75%: mortality at 300 ppm [1] | mortality at 300 ppm [2] | mortality at 2500 ppm [3] | mortality at 300 ppm [4] | mortality at 2500 ppm [5] | mortality at 300 ppm [6] | mortality at 500 ppm [7] | mortality at 2500 ppm [8] | mortality at 300 ppm [13] | mortality at 300 ppm [9] | mortality at 300 ppm [14] | mortality at 2500 ppm [10] | mortality at 300 ppm [11] | mortality at 500 ppm [12]

FC(F)(F)c1cc(Cl)cc(-c2c(C(F)(F)F)nn(-c3ncccn3)c2-n2cccc2)c1 [I.1-7, 2-[4-[3-chloro-5-(trifluoromethyl)phenyl]-5-pyrrol-1-yl-3-(trifluoromethyl)pyrazol-1-yl]pyrimidine]
≥ 75%: mortality at 300 ppm [1] | mortality at 300 ppm [2] | mortality at 300 ppm [4] | mortality at 2500 ppm [5] | mortality at 300 ppm [6] | mortality at 300 ppm [11] | mortality at 500 ppm [12]

CCNC(=O)N(C(=O)NCC)c1c(-c2cc(Cl)cc(C(F)(F)F)c2)c(C(F)(F)F)nn1-c1ncccn1 [I.1-9, 1-[4-[3-chloro-5-(trifluoromethyl)phenyl]-2-pyrimidin-2-yl-5-(trifluoromethyl)pyrazol-3-yl]-3-ethyl-1-(ethylcarbamoyl)urea]
≥ 75%: mortality at 500 ppm [7]

FC(F)(F)c1cc(Cl)cc(-c2c(C(F)(F)F)nn(-c3ncccn3)c2/N=N/Nc2ccccc2)c1 [I.1-10, N-[(E)-[4-[3-chloro-5-(trifluoromethyl)phenyl]-2-pyrimidin-2-yl-5-(trifluoromethyl)pyrazol-3-yl]azo]aniline]
≥ 75%: mortality at 300 ppm [1] | mortality at 2500 ppm [3] | mortality at 300 ppm [4] | mortality at 2500 ppm [5] | mortality at 300 ppm [6] | mortality at 2500 ppm [8] | mortality at 300 ppm [13] | mortality at 2500 ppm [10]
